One may read the pIC50 as the IC50 on a negative log10 scale, so that one unit is a factor of ten.

SMILES strings stand for the structures. pIC50: −log10 of the molar value. Several values for one entry are separate records, joined by “and”; a condition that tells them apart may be missing. Equal entries are not always repeated. Structures can show the parent of a compound that is named as a salt.

This assay concerns the target T1, Human ATX protein (Homo sapiens, UniProt Q13822).
T1 construct: made in house
Nature of the assay: ATX biochemical assay (FRET, FS-3 substrate). The note with it: FRET assay, FS-3 2 μM, ATX 1.0 μg/mL, 30 minutes preincubation, 2 hours reaction at room temperature; read-out: IC50. The source says:
ATX (Autotaxin) is a 125 KDa glycoprotein with lysophospholipase D (LPLD) activity that generates the bioactive lipid lysophosphatidic acid (LPA) from lysophosphatidylcholine (LPC). The ATX biochemical assay utilizes a FRET (fluorescence resonance energy transfer) technology platform. The fluorescence signal of FRET substrate FS-3 is quenched due to intra-molecular FRET of a fluorophore to a non-fluorescing quencher (Ferguson, C. G., et al., Org Lett. 2006 May 11; 8(10): 2023-2026, which is incorporated by reference in its entirety). ATX catalyzes the hydrolysis of the substrate which separates the dabsyl quencher from the fluorescein reporter, which becomes fluorescent. The reaction is monitored by a SpectraMax M5 (Molecular Devices, Sunnyvale, Calif.) with at excitation wavelength 485 nm and emission wavelength […].
Fatty acid free-BSA (Sigma A8806): 10 mg/mL in H2O, stored at 4° C.
2×ATX assay buffer: 100 mM Tris, 280 mM NaCl, 10 mM KCl, 2 mM CaCl2, 2 mM MgCl2, pH 7.4.
Human ATX protein: expressed and purified in house. Stored at −80° C.
Substrate FS-3 (Echelon, L-2000): 100 μg in 77.74 μL H2O (1 mM stock), stored at −20° C.
384-well flat bottom plates—Corning #3575.
Compound dilution—All compounds were provided at 10 mM in 100% DMSO. In the first well, 2 μL of 10 mM compound was added to 78 μL of DMSO (1:40 dilution). In subsequent wells 3-fold dilution (total 10 dilutions) were performed.
1×ATX assay buffer was made up with a final concentration of 1 mg/mL fatty acid free-BSA using 2×ATX assay buffer, 10 mg/ml fatty acid free-BSA and ddH2O.
[…]. The final concentration of ATX in the reaction as 1.0 μg/mL.
2 μL per well of compounds was transferred to provide the desired concentration. The plate was centrifuged, then incubated at room temperature for 30 minutes on the shaker.
FS-3 was diluted with 1×ATX assay buffer to a concentration of FS-3 of 10 μM (5×). Then, 10 μL was added per well to the assay plate. The final concentration of FS-3 in the reaction was 2 μM. The plate was centrifuged. The plate was kept shaking at room temperature for 2 hours. Because FS-3 substrate is light sensitive, plates were kept covered and protected from light.
Fluorescence was measured using SpectraMax M5 (excitation at 485 nm/emission at 538 nm, top read).
With `CCOC(=O)c1nn(Cc2ccc(F)cc2)c2c1CCN(C(=O)C[C@H]1CC[C@H](C(=O)OCC)CC1)C2` [Example 1-40, Ethyl 6-(2-(trans-4-(ethoxycarbonyl)cyclohexyl)acetyl)-1-(4-fluorobenzyl)-4,5,6,7-tetrahydro-1H-pyrazolo[3,4-c]pyridine-3-carboxylate], the pIC50 was < 6.30 and ≥ 5.00.

As to `O=C(C[C@H]1CC[C@@H](C(=O)O)CC1)N1CCc2cnn(Cc3ccc(Cl)cc3F)c2C1` [Example 7-4, cis-4-(2-(1-(4-chloro-2-fluorobenzyl)-4,5-dihydro-1H-pyrazolo[3,4-c]pyridin-6(7H)-yl)-2-oxoethyl)cyclohexanecarboxylic acid], the pIC50 was at least 7.00. On to `O=C(O)CC1CN(CC(=O)N2CCc3c(C(F)(F)F)nn(Cc4ccc(Cl)cc4F)c3C2)C1` [Example 13-22, 2-(1-(2-(1-(4-Chloro-2-fluorobenzyl)-3-(trifluoromethyl)-4,5-dihydro-1H-pyrazolo[3,4-c]pyridin-6(7H)-yl)-2-oxoethyl)azetidin-3-yl)acetic acid TFA salt], for which the pIC50 was at least 7.00.

For the molecule `O=C(C[C@H]1CC[C@@H](C(=O)O)CC1)N1CCc2c(C(F)(F)F)nn(Cc3ccc(Cl)cc3)c2C1` [Example 7-6, cis-4-(2-(1-(4-chlorobenzyl)-3-(trifluoromethyl)-4,5-dihydro-1H-pyrazolo[3,4-c]pyridin-6(7H)-yl)-2-oxoethyl)cyclohexanecarboxylic acid], the pIC50 was at least 7.00. The figure for `NC(=O)[C@H]1CC[C@@H](CC(=O)N2CCc3c(C(F)(F)F)nn(Cc4ccc(F)cc4)c3C2)CC1` [Example 20-1, cis-4-(2-(1-(4-Fluorobenzyl)-3-(trifluoromethyl)-4,5-dihydro-1H-pyrazolo[3,4-c]pyridin-6(7H)-yl)-2-oxoethyl)cyclohexanecarboxamide] is at least 7.00. The value for `O=C(CN[C@H]1C[C@H](C(=O)O)C1)N1CCc2c(C(F)(F)F)nn(Cc3ccc(F)cc3)c2C1` [Example 13-29, trans-3-(2-(1-(4-Fluorobenzyl)-3-(trifluoromethyl)-4,5-dihydro-1H-pyrazolo[3,4-c]pyridin-6(7H)-yl)-2-oxoethylamino)cyclobutanecarboxylic acid TFA salt] was at least 7.00; that for `O=C(C[C@H]1CC[C@H](C(=O)O)CC1)N1CCc2c(C(F)(F)F)nn(Cc3ccccn3)c2C1` [Example 5-23, trans-4-(2-Oxo-2-(1-(pyridin-2-ylmethyl)-3-(trifluoromethyl)-4,5-dihydro-1H-pyrazolo[3,4-c]pyridin-6(7H)-yl)ethyl)cyclohexanecarboxylic acid] was 6.60 to 7.00.

`CCOC(=O)C1CCC(CC(=O)N2CCc3c(C(F)(F)F)nn(Cc4ccc(Cl)cc4Cl)c3C2)CC1` (centres unmarked) [Example 1-9, Ethyl 4-(2-(1-(2,4-dichlorobenzyl)-3-(trifluoromethyl)-4,5-dihydro-1H-pyrazolo[3,4-c]pyridin-6(7H)-yl)-2-oxoethyl)cyclohexanecarboxylate]: the pIC50 was at least 7.00. Consider `CC1(C)C(CC(=O)N2CCc3c(C(F)(F)F)nn(Cc4ccc(Cl)cc4F)c3C2)CC1C(=O)O` (mixture of isomers) [Example 6-14, 3-(2-(1-(4-Chloro-2-fluorobenzyl)-3-(trifluoromethyl)-4,5-dihydro-1H-pyrazolo[3,4-c]pyridin-6(7H)-yl)-2-oxoethyl)-2,2-dimethylcyclobutanecarboxylic acid], for which the pIC50 was at least 7.00. The value for `N#Cc1ccc(Cn2nc(C(F)(F)F)c3c2CN(C(=O)C[C@H]2CC[C@@H](C(=O)O)CC2)CC3)cc1` (stereo in doubt) [Example 5-35, cis-4-(2-(1-(4-Cyanobenzyl)-3-(trifluoromethyl)-4,5-dihydro-1H-pyrazolo[3,4-c]pyridin-6(7H)-yl)-2-oxoethyl)cyclohexanecarboxylic acid] was at least 7.00; that for `CCOC(=O)C1CCC(CC(=O)N2CCc3c(C(F)(F)F)nn(Cc4ccc(C(F)(F)F)cc4)c3C2)CC1` (centres unmarked) [Example 1-10, Ethyl 4-(2-oxo-2-(3-(trifluoromethyl)-1-(4-(trifluoromethyl)benzyl)-4,5-dihydro-1H-pyrazolo[3,4-c]pyridin-6(7H)-yl)ethyl)cyclohexanecarboxylate] was at least 7.00.

These data come from US10144732B2 (BIOGEN MA INC., priority 2014, dated 2018).
